US20080292571A1, “Deodorant composition with monocyclic, unsaturated sequiterpene alcohols and glyceryl monoalkyl ethers as synergistic active deodorant agents” (priority 2007, published 2008)

Experiments:
[1] = system: Staphylococcus; assay: Anti-microbial test: microorganisms inoculated into gel formula, survivors counted; type: cell-based
Method: The antimicrobially synergistically effect of alpha Bisabolol (Natural) for glyceryl monoalkyl ether was studied and the results are summarized in Tables 15 and 16, below. […] Subsequently the steareth-100, sodium stearate, and stearyl alcohol were added and the mixture cooled. […] The final compositions were then poured into containers and cooled to room temperature. […] Therefore following formula is gel type. Inoculate test microorganisms to provide a suspension containing from […] microorganisms/ml and after 1 hr, 5 hr and 24 hr, check the surviving microorganisms by incubating in the soybean-casein digest agar for 24 hours at 32.5° C. the results are summarized below.

[2] = 0.3% by weight ethylhexylglycerin in ethanol base deodorant vs 0.1% by weight triclosan; cited from earlier work
[3] = system: odor-causing gram positive bacteria; details: as reported in U.S. Pat. No. 5,736,574; cited from earlier work
[4] = cited from earlier work

Structure (SMILES)	anti-microbial activity (in words) ([1]; 0.2% by weight, with no ethylhexylglycerin)	effect on the anti-microbial activity of ethylhexylglycerin ([1]; alpha Bisabolol (Natural) combined with ethylhexylglycerin)	deodorant effectiveness compared with triclosan [2]	anti-microbial activity against odor-causing gram positive bacteria [3]	stability ([4]; e.g. against hydrolysis and elevated temperatures)	solubility in fats and organic solvents ([4]; fats and organic solvents like alcohols, glycols and glycol ethers)	solubility in water ([4]; water)
CC(C)=CCC[C@](C)(O)[C@@H]1CC=C(C)CC1 [alpha Bisabolol (Natural), alpha-Bisabolol]	no anti-microbial activity	synergistic effect	–	–	–	–	–
CCCCC(CC)COCC(O)CO (stereo not shown) [ethylhexylglycerin, Ethylhexylglycerin]	–	–	just as effective as 0.1% by weight triclosan	very low	rather stable	completely soluble	0.2%
